These results are taken from article PMC6468747 (Cancers, 2019).

Data set [1] has as its system MDA-MB-231 cells. Nature of the data set: Real time cell invasion assay (xCELLigence). Type of data set: cell-based, human. Particulars: 2.5, 5 and 10 μM, 24 h pre-treatment. The protocol: Real-time measurement of cell invasion was performed using the xCELLigence RTCA DP device (ACEA Biosciences, San Diego, CA, USA). MDA-MB-231 cells were treated with VNLG-152 (2.5, 5, and 10 μM) for 24 h, cells being treated with VNLG-152 when they were plated. Subsequently, cells were seeded (75,000/well) onto 16-well microelectronic censored, two chamber Matrigel-coated trans-well plates (CIM-plates) containing the respective drug in serum-free condition. Medium containing 10% serum (chemo-attractant) was added to the bottom wells. Invasion of cells was measured from the interaction of cells with the electrodes on the bottom surface of top chamber and represented as a change in cell index (CI), an arbitrary unit derived from the relative change in electrical impedance across microelectronic sensor arrays. The electrical impedance was captured every 3 min for an experimental duration of 24 h. The rate of invasion is expressed as the CI or the change in electrical impedance at each timepoint. Values are expressed as the ±SEM of the duplicate wells from three independent experiments.

In data set [2] the test system is MDA-MB-231-Luc cells. As to the kind of experiment: Experimental lung metastasis assay. The class given is in vivo, SCID mice. The settings on record: 20 mg/kg IP, 2 weeks, IVIS luciferase signal in lung. The protocol: The MDA-MB-231-luc cells were the kind gift of Dr. Stuart Martin (UMB). Cells were grown in DMEM with 10% FBS, hygromycin and G418 to subconfluence (~50–70%) and then trypsinized, washed, and resuspended in PBS. 1 × 10^6 cells were injected IV in a volume of 100 µL. Mice were treated for 14 days with vehicle or VNLG-152 by IP injection at doses of 20 mg/kg. The luciferase signals in the mice were detected and photographed using an IVIS in vivo image system on days 0, 1 and 14 [81].

For data set [3], the system named is EMT-related proteins. Nature of the data set: Western blot of EMT-related proteins in MDA-MB-231 and MDA-MB-468 cells. Type of data set: cell-based, human. Particulars: 24 h. The protocol: MDA-MB-231, MDA-MB-468, MDA-MB-436, MDA-MB-453, HCC-1806, and MFM-223 cells were purchased from American Type Culture Collection (ATCC, Manassas, VA, USA), and authenticated at the Biopolymer/Genomics Core Facility, University of Maryland Baltimore. Cells were tested for mycoplasma contamination at the University of Maryland Marlene and Stewart Greenebaum Cancer Center (UMGCC) Translational Shared Service. Cells were cultured in the recommended media supplemented with 10% FBS and plated 1 day prior to treatment. Cells were treated with the indicated dose and time in the figure at 37 °C in 5% CO2. Protein lysates were harvested in RIPA lysis buffer (Sigma). Western blotting was done as described previously with antibodies described above.
Background: A western blot detects proteins with antibodies after separation by electrophoresis.

A short description of data set [4]: Plasma pharmacokinetics after single IV and PO dosing. The class given is in vivo, female CD1 mice. Particulars: female, CD-1, mouse, plasma; for AUC(0-inf): read-out: AUC(0-inf). The protocol: 5. In vivo Pharmacokinetics (PK) Determination: These studies were Performed by Charles River Laboratories (CRL), Discovery Services, 251 Ballardvale Street, Wilmington, MA 01887, USA.
The PK studies were performed according to the guidelines and approval of CRL Institutional Animal Care and Use Committee (IACUC) under IACUC approval no: P04172013.
A total of sixty‐four naïve female CD‐1 mice (including 6 spare animals) were received from Charles River Laboratories, Kingston, NY. Following an acclimation period, the animals were assigned to the study based on acceptable health as determined by a staff veterinarian. For dosing, animals were placed into six groups as detailed in the study design table below. All animals were fasted overnight prior to dosing and food was returned after the 4‐h post‐dose blood collections.
Each animal in Groups 1, 3 and 5 received a single administration of prepared test article by intravenous tail administration at a target dose level of 2 mg/kg and dose volume of 10 mL/kg. Each animal in Groups 2, 4 and 6 received a single administration of prepared test article by oral gavage at a target dose level of 20 mg/kg and at a dose volume of 10 mL/kg. Dosing was performed on August 13, 2015 as detailed in the study protocol and was completed without incident. Dose administration […]
Following dosing and at each sample collection time
Group Mices Test Compound Level Conc. Volume Dose Vehicle Route […]
Interim blood samples were collected in a leapfrog design from each animal by puncture of a submandibular vein and a terminal blood sample was collected from each animal by intracardiac puncture following euthanasia with CO2 as outlined in the sample collection table below.
All blood samples were transferred into tubes containing K2EDTA anticoagulant and placed on wet ice immediately after collection until centrifuged at 2200 × g for 10 min at […] to isolate plasma.
The resulting plasma was transferred to individual polypropylene tubes in a 96‐well plate format and immediately placed on dry ice until storage at nominally […] before transfer to the Test Facility’s bioanalysis group for concentration and HPLC analysis. Individual blood collection times are […]
Table S4. Sample Collections.
Collection Information Whole Blood for Plasma Whole Blood for Plasma
Subgroup A (n = 3) 5 min & 1 h post‐dose 8 h post‐dose
Subgroup B (n = 3) 15 min & 4 h post‐dose 12 h post‐dose
Subgroup C (n = 3) 30 min & 6 h post‐dose 24 h post‐dose
Subgroup D (n = 2) Not applicable 2 h post‐dose
Subgroup A (n = 3) 15 min & 2 h post‐dose 8 h post‐dose
Subgroup B (n = 3) 30 min & 4 h post‐dose 12 h post‐dose
Subgroup C (n = 3) 1 hr & 6 h post‐dose 24 h post‐dose
Collection conditions K2EDTA K2EDTA
Collection route Submandibular Intracardiac puncture
Volume/Time point 100 μL Maximum volume
The plasma samples for Groups 1‐6, Subgroups A‐C were analyzed for test article concentration using a Research Grade LC MS/MS Assay (RGA‐Level 1). The bioanalytical report, including plasma […]
Pharmacokinetic parameters were estimated from the plasma concentration‐time data using standard non‐compartmental methods and utilizing suitable analysis software (Watson 7.2 Bioanalytical LIMS, Thermo Electron Corp). Parameters were estimated using nominal sampling times relative to the start of each dose administration (within an acceptable tolerance limit).
Concentrations below the limit of quantification were excluded from the pharmacokinetic analysis.
The area under the plasma test item concentration versus time curve (AUC) was calculated using the linear‐log‐linear trapezoidal method. When practical, the terminal elimination phase of each concentration versus time curve was identified using at least the final three observed concentration values. The slope of the terminal elimination phase was determined using log linear regression on the unweighted concentration data.
Parameter Description of Parameter […]

By half-life is commonly meant the time in which the quantity being followed falls by half. A higher half-life goes with slow decline. The term AUC(0-inf) denotes total exposure, with the tail of the curve extrapolated. Usually Cmax stands for the maximum level reached in the sampled fluid or tissue.

Read-outs that look alike come from different tables or passages of the source.

For `CC1=C(/C=C/C(C)=C/C=C/C(C)=C/C(=O)Nc2ccc(F)cc2)C(C)(C)CCC1n1ccnc1` (racemic) [VNLG-152R, 4-(±)-(1H-imidazol-1-yl)-N-(4-fluorophenyl)-(E)-retinamide], the “invasive ability (cell index)” value in data set [1] is listed as “significantly lower”. Moreover, in data set [2], the inhibition of metastasis was ~ 80%. For the same molecule, the “expression of N-Cadherin, β-catenin, MMP-2, MMP-9, Snail, Slug, Vimentin and TCF/ZEB-1” value in data set [3] is “concentration-dependent decreases”. In addition, in data set [4] (PO 20 mg/kg vs IV 2 mg/kg, read-out: F (%) oral bioavailability), the bioavailability was determined as 121%. The half-life in data set [4] (IV, 2 mg/kg) was 115 min; in data set [4] (PO, 20 mg/kg), 555 min. The AUC(0-inf) in data set [4] (IV, 2 mg/kg) came to 1130 ng·h/mL; in data set [4] (PO, 20 mg/kg), 13700 ng·h/mL. The maximum concentration (Cmax) in data set [4] (PO, 20 mg/kg, read-out: Cmax) is 3750 ng/mL.
